Source: patent US11230526B1, “Cylcoalkenyl derivatives useful as agonists of the GPR120 and/or GPR40 receptors” (Janssen Pharmaceutica NV, priority 2018, dated 2022)
pEC50: −log10 of the molar value.

How the values were obtained:
[1] = molecular target: T1, long form of human GPR120 (Homo sapiens, UniProt Q5NUL3); assay: Human GPR120 DiscoveRx PathHunter Beta-Arrestin assay, Procedure β-arrestin A; type: cell-based
T1 construct: host or cells: PathHunter CHO-K1 GPR120 β-Arrestin Cell Line
In short: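 PathHunter CHO-K1 cells expressing long-form human GPR120 (3000/well) were seeded overnight. They were then preincubated 60 min in HBSS with 20 mM HEPES and 0.1% BSA, pH 7.4, and exposed to compound for 90 min at 37 °C. β-Arrestin recruitment was read as β-gal complementation luminescence. EC50 came from % activity versus positive control, Hill slope fixed at 1.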

C57bl/6J Mice = assay: GPR120 C57bl6 mouse IPGTT; type: in vivo; conditions: male C57bl/6J mice, dosed 30 minutes prior to glucose (IP) 1.5 g/kg
Procedure: Male, C57bl/6J Mice were ordered in at 8 weeks of age from Jackson Labs. Individual mice weighed anywhere in the range of 25-30 grams on study day. The mice were fasted, with removal of food occurring at 7 am on the morning of the study. Animals were moved into the room at 10:00 am, to give them time to acclimate. Glucose (insulin syringes) was drawn up either the night before or the morning of the study. Glucose was dosed (IP) at 1.5 g/kg at 7.5 ml/kg (20% glucose straight TEKNOVA, 250 ml sterile bottle w/catalogue number G0525). Test compounds were kept spinning and were only drawn into the syringes prior to study commencement. Animals were bled via tail snip to determine basal glucose levels prior to dosing of treatments. An Ascensia BREEZE Blood Glucose Monitoring System by Bayer (using unique 10-test disks) was used for determining glucose levels. The bleeds started at approximately 12:45 pm and dosing started, at 1-minute intervals, immediately after. All groups were dosed 30 minutes prior to glucose administration at a dose volume of 10 ml/kg (the dose volume was calculated separately for each individual animal). Thirty minutes after the first dose animals were bled again for a second baseline, or T=0, and immediately dosed with glucose via an i.p. injection. The exact dose volume for glucose was also calculated separately for each individual animal. Glucose measurements were taken at −30 min prior to compound dose, at t=0 (immediately prior to glucose dose), and at 15, 30, 45, 60, 90 min post glucose dose.
Glucose values were entered into an Excel sheet and graphed in GraphPad Prism. The following were calculated from Prism: Change from −30 to 0 Baseline Glucose, Raw Glucose AUC −30 to 90 min, Delta Glucose AUC −30 to 90 min, Raw Glucose AUC 0 to 90 min, Delta Glucose AUC 0 to 90 min.

T1 sequence (Q5NUL3 1-377 isoform Q5NUL3-1): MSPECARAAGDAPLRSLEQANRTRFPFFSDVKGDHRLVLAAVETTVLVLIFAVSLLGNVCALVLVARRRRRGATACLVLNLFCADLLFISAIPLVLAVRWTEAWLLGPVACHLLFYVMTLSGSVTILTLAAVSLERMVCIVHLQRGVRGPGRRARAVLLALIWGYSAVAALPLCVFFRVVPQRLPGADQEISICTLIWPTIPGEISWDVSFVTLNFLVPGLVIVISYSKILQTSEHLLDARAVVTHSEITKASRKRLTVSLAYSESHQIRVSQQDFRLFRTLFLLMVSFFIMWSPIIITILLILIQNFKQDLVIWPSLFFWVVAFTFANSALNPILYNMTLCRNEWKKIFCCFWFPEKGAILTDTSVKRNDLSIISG
T1 sequence (P32121 whole entry partner): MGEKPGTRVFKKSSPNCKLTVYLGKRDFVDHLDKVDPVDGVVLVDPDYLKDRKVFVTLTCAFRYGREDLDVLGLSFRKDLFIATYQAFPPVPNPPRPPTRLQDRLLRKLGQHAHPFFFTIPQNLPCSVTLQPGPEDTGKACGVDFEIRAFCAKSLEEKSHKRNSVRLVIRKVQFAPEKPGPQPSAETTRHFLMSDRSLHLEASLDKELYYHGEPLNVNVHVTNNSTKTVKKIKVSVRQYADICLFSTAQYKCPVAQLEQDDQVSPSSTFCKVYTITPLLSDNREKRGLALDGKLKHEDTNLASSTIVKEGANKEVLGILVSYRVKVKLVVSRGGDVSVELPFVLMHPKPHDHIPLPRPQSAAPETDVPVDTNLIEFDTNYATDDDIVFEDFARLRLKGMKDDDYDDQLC

pEC50 [1] | SMILES | C57 IPGTT, Dose Response Results (C57bl/6J Mice; 3 mg/kg) [%] | C57 IPGTT, Dose Response Results (C57bl/6J Mice; 10 mg/kg) [%] | C57 IPGTT, Dose Response Results (C57bl/6J Mice; 30 mg/kg) [%] | C57 IPGTT, Dose Response Results (C57bl/6J Mice; 1 mg/kg) [%]
7.14 | Cc1ccc(C2=C(COc3ccc(CCC(=O)O)c(C)c3C)CCC2)cc1F [Compound 80, 3-(4-((2-(3-fluoro-4-methylphenyl)cyclopent-1-en-1-yl)methoxy)-2,3-dimethylphenyl)Propanoic Acid] | 10 | 55 | 81 | –
6.77 | Cc1c(CCC(=O)O)ccc(OCC2=C(c3ccc(Cl)cc3)CCC(F)(F)C2)c1C [Compound 468, 3-[4-[[2-(4-chlorophenyl)-5,5-difluoro-cyclohexen-1-yl]methoxy]-2,3-dimethyl-phenyl]Propanoic Acid] | – | – | – | –
– | Cc1ccc(C2=C(COc3ccc(CCC(=O)O)c(C)c3C)CCC2)cc1 [Compound 52, 3-[2,3-dimethyl-4-[[2-(p-tolyl)cyclopenten-1-yl]methoxy]phenyl]Propanoic Acid] | 11 | 30 | 92 | –
7.37 | Cc1c(CCC(=O)O)ccc(OCC2=C(c3ccc(Cl)cc3)CC(F)(F)C2)c1C [Compound 137, 3-[4-[[2-(4-chlorophenyl)-4,4-difluoro-cyclopenten-1-yl]methoxy]-2,3-dimethyl-phenyl]Propanoic Acid] | – | – | – | –
– | Cc1cc(CCC(=O)O)ccc1OCC1=C(c2ccc(Cl)cc2)CCCC1 [Compound 483, 3-[4-[[2-(4-chlorophenyl)cyclohexen-1-yl]methoxy]-3-methyl-phenyl]Propanoic Acid] | 33 | 51 | – | 23
– | Cc1ccc(C2=C(COc3ccc(CCC(=O)O)c(C)c3C)CCC2)cn1 [Compound 85, 3-(2,3-dimethyl-4-((2-(6-methylpyridin-3-yl)cyclopent-1-en-1-yl)methoxy)phenyl)Propanoic Acid] | 24 | 19 | – | 13
– | Cc1cc(CCC(=O)O)ccc1OCC1=C(c2ccc(Cl)cc2)CCC1 [Compound 62, 3-[4-[[2-(4-chlorophenyl)cyclopenten-1-yl]methoxy]-3-methyl-phenyl]Propanoic Acid] | 35 | 56 | – | 10
– | CCc1ccc(C2=C(COc3ccc(CCC(=O)O)c(F)c3F)CCC2)cc1 [Compound 25, 3-(4-((2-(4-ethylphenyl)cyclopent-1-en-1-yl)methoxy)-2,3-difluorophenyl)Propanoic Acid] | 17 | 22 | 39 | –
– | CCc1ccc(C2=C(COc3ccc(CCC(=O)O)c(C)c3C)CCC2)cc1 [Compound 27, 3-(4-((2-(4-ethylphenyl)cyclopent-1-en-1-yl)methoxy)-2,3-dimethylphenyl)Propanoic Acid] | 23 | 37 | – | 15
6.45 | Cc1c(CCC(=O)O)ccc(OCC2=C(c3ccc(Cl)cc3)CCCC2)c1C [Compound 474, 3-[4-[[2-(4-chlorophenyl)cyclohexen-1-yl]methoxy]-2,3-dimethyl-phenyl]Propanoic Acid] | – | – | – | –
